Assay: Evaluation of active agent release in vitro from polymerized collagen-hyaluronic acid film (HPLC)
Format: physicochemical
Settings: from UV-polymerized (18 min, 254 nm) collagen-hyaluronic acid film, 0.01 M phosphate buffer pH 7.4, 37° C., 1 hour to 3 months
Description: Four round pieces of 35 mm diameter polymerized film were cut into 4 sections and placed in 1.5 mL vials containing 1 mL of 0.01 M phosphate buffer at a pH of 7.4. The 16 vials were placed in a controlled temperature chamber at 37° C. Five aliquots of 100 μL were removed from 2 vials each at 1 hour, 3 days, 7 days, 2 weeks, 1 month, 2 months, and 3 months. Two vials were reserved for additional time periods if release was still noted at 3 months. Four vials of buffer only were used for controls.
Active agent concentration (e.g., Latanoprost) was measured by HPLC at Millennium Research Laboratories. Detection at nanogram levels was validated using active agent (e.g., Latanoprost) standards and concentration curves.

For CC(C)OC(=O)CCC/C=C\C[C@@H]1[C@@H](CC[C@@H](O)CCc2ccccc2)[C@H](O)C[C@@H]1O [Latanoprost, 13,14-dihydro-17-phenyl-18,19,20-trinor-prostaglandin F2a-1-isopropyl ester], the “Active agent release profile” value was “initial bolus release at 1 day followed by sustained, zero order release through 3 months”.

— US20240252446A1, “DERIVATIZED COLLAGEN-HYALURONIC ACID BASED IMPLANTS FOR SUSTAINED DELIVERY OF OPHTHALMIC DRUGS” (SUSTAINED DRUG DELIVERY LLC, priority 2023, published 2024)
